What is called ED50 is the midpoint of the dose-response relation.

Experiment [1] has as its system adjuvant-induced arthritis in rats. Briefly: Established Adjuvant-Induced Arthritis in Rats. In kind it is in vivo, Charles River Lewis male rats. To be noted: for ED50: Rattus norvegicus, read-out: A. A. ED50%.
The test system of experiment [2] is phenylquinone-induced writhing in mice. Briefly: Phenylquinone Writhing Test. In kind it is in vivo, female white mice. To be noted: Mus musculus, 0.5 h, oral, at 1/2 hour. On the procedure: A standard procedure for detecting and comparing the analgesic activity of compounds in this series for which there is good correlation with human efficacy is the standard phenylquinone writhing test modified from Siegmund, et al., Proc. Soc. Exp. Biol. Med. 95, 729 (1957). A test compound suspended in 1% methylcellulose was given orally to fasted (17-21 hours) female white mice, 5-20 animals per double blind test. Aqueous (0.01% phenyl-p-benzoquinone) phenylquinone was injected intraperitoneally at 24 minutes later using 0.20 ml per mouse. […] The effective analgesic dose for 50% of the mice (ED50) was calculated by the moving average method of Thompson, W. R., Bact. Rev. 11, 115-145 (1947); also time of peak action was determined for many of the compounds.

Where [3] appears, read: oral, 7 daily doses, established adjuvant arthritis rats, determined as % paw volume reduction from control.
Setting [4] is: oral, 7 daily doses, established adjuvant arthritis rats.

Each structure is given as a SMILES string. Like-named read-outs stand apart in the source and are kept apart here. Where only a bound is given, the exact number is not on record here.

With `Fc1ccc(-c2nc(SC(F)(F)C(F)F)[nH]c2-c2cccs2)cc1` [Example 2, 4-(4-Fluorophenyl)-2-(1,1,2,2-tetrafluoroethylthio)-5-(2-thienyl)-1H-imidazole], the ED50 in experiment [1] (setting [3]) was found to be 1.3 mg/kg. Turning to `COc1ccc(-c2nc(SC(F)(F)C(F)F)[nH]c2-c2cccs2)cc1` [Example 8, 4-(4-Methoxyphenyl)-2-(1,1,2,2-tetrafluoroethylthio)-5-(2-thienyl)-1H-imidazole], the ED50 in experiment [1] (setting [3]) stood at 30 mg/kg; in experiment [2], 45 mg/kg. The like results for `O=S(=O)(c1nc(-c2ccc(F)cc2)c(-c2cccs2)[nH]1)C(F)(F)C(F)F` [Example 3, 4-(4-Fluorophenyl)-2-(1,1,2,2-tetrafluoroethylsulfonyl)-5-(2-thienyl)-1H-imidazole] were, in that order, 0.1 mg/kg and 2.1 mg/kg.

For the molecule `FC(F)C(F)(F)Sc1nc(-c2cccs2)c(-c2cccs2)[nH]1` [Example 1, 2-[(1,1,2,2-Tetrafluoroethyl)thio]-4,5-bis-(2-thienyl)-1H-imidazole], the “% paw volume reduction from control at 50 mg/kg” value in experiment [1] (setting [4]) is recorded as 32%. It took a dose of 4.6 mg/kg to reach the 50% effect level in experiment [2] (ED50). Regarding `FC(F)C(F)(F)Sc1nc(-c2ccc(Cl)c(Cl)c2)c(-c2cccs2)[nH]1` [Example 6, 4-(3,4-Dichlorophenyl)-2-(1,1,2,2-tetrafluoroethylthio)-5-(2-thienyl)-1H-imidazole], the ED50 in experiment [1] (setting [3]) is 50 mg/kg.

As for `CC(C)Cc1ccc(C(C)C(=O)O)cc1` (stereo not shown) [Ibuprofen, reference compound], the 50% effective dose (ED50) in experiment [1] (setting [3]) came out at 100 mg/kg. As for `COc1ccc2c(c1)c(CC(=O)O)c(C)n2C(=O)c1ccc(Cl)cc1` [Indomethacin, reference compound], the 50% effective dose (ED50) in experiment [1] (po) came out at 0.3 mg/kg. As to `FC(F)C(F)(F)Sc1nc(-c2ccccc2)c(-c2cccnc2)[nH]1` [Example 11, 4-Phenyl-5-(3-pyridyl)-2-(1,1,2,2-tetrafluoroethylthio)-1H-imidazole], the ED50 in experiment [1] (setting [3]) was below 25 mg/kg. Consider `O=S(=O)(c1nc(-c2cccs2)c(-c2cccs2)[nH]1)C(F)(F)C(F)F` [Example 5, 2-(1,1,2,2-Tetrafluoroethylsulfonyl)-4,5-bis-(2-thienyl)-1H-imidazole], for which the ED50 in experiment [1] (setting [3]) is 2.2 mg/kg; in experiment [2] it was below 130 mg/kg.

For the molecule `CC(=O)Oc1ccccc1C(=O)O` [Aspirin, reference compound], in experiment [1] (po), the ED50 is 305 mg/kg. Take `FC(F)C(F)(F)Sc1nc(-c2ccc(Cl)cc2)c(-c2cccs2)[nH]1` [Example 4, 4-(4-Chlorophenyl)-2-(1,1,2,2-tetrafluoroethylthio)-5-(2-thienyl)-1H-imidazole]: the ED50 in experiment [1] (setting [3]) amounted to 12 mg/kg. With `FC(F)C(F)(F)Sc1nc(-c2ccco2)c(-c2ccco2)[nH]1` [Example 10, 4,5-bis-(2-Furyl)-2-(1,1,2,2-tetrafluoroethylthio)-1H-imidazole], the “% paw volume reduction from control at 50 mg/kg” value in experiment [1] (setting [4]) is 34%. As to `CCCCC1C(=O)N(c2ccccc2)N(c2ccccc2)C1=O` [Phenylbutazone, reference compound], the ED50 in experiment [1] (setting [3]) worked out at 10 mg/kg. In the case of `COc1ccc(-c2nc(S(=O)(=O)C(F)(F)C(F)F)[nH]c2-c2cccs2)cc1` [Example 9, 4-(4-Methoxyphenyl)-2-(1,1,2,2-tetrafluoroethylsulfonyl)-5-(2-thienyl)-1H-imidazole], the figures for the ED50 in experiment [1] (setting [3]) and in experiment [2] were 5 mg/kg and 1.67 mg/kg, respectively.
